Data reported in patent US20200399250A1, “Pyrimidine Derivatives as Tropomyosin Receptor Kinase A (TRKA) Inhibitors” (BIOMED X GMBH, priority 2017, published 2020).
Entries after “also recorded” stand apart in the source; their conditions may differ.

Assays:
[1] = system: panel of 97 kinases; assay: Selectivity profiling, scanEDGE kinase panel (KINOMEscan); assay type: binding; conditions: 100 nM, cut-off <35% ctrl; for # Hits: N = 92 non-mutant kinases; for Selectivity Score: inhibited kinases/tested kinases
Protocol: Selectivity profiling was done over a panel of 97 kinases at 100 nM concentration (scanEDGE assay panel from Discover X, which also uses the KINOMEscan technology, whereat KIT(D816V) and KIT (V559D, T6701) were replaced by TrkB and TrkC). […] The employed profiling panel consisted of the following kinases: ABL1(T3151)-phosphorylated, ABL1-nonphosphorylated, ABL1-phosphorylated, ACVR1B, ADCK3, AKT1, AKT2, ALK, AURKA, AURKB, AXL, BMPR2, BRAF, BRAF (V600E), BTK, CDK11, CDK2, CDK3, CDK7, CDK9, CHEK1, CSF1R, CSNK1D, CSNK1G2, DCAMKL1, DYRK1B, EGFR, EGFR (L858R), EPHA2, ERBB2, ERBB4, ERK1, FAK, FGFR2, FGFR3, FLT3, GSK3B, IGF1R, IKK-alpha, IKK-beta, INSR, JAK2 (JH1domain-catalytic), JAK3 (JH1domain-catalytic), JNK1, JNK2, JNK3, KIT, LKB1, MAP3K4, MAPKAPK2, MARK3, MEK1, MEK2, MET, MKNK1, MKNK2, MLK1, p38-alpha, p38-beta, PAK1, PAK2, PAK4, PCTK1, PDGFRA, PDGFRB, PDPK1, PIK3C2B, PIK3CA, PIK3CG, PIM1, PIM2, PIM3, PKAC-alpha, PLK1, PLK3, PLK4, PRKCE, RAF1, RET, RIOK2, ROCK2, RSK2 (Kin. Dom. 1-N-terminal), SNARK, SRC, SRPK3, TGFBR1, TIE2, TRKA, TRKB, TRKC, TSSK1B, TYK2 (JH1domain-catalytic), ULK2, VEGFR2, YANK3, ZAP70

[2] = molecular target: T1, TrkA (Homo sapiens, UniProt P04629); assay: KINOMEscan primary screen against TrkA; assay type: binding; conditions: % of control; for % Ctrl. TrkA @10 nM: 10 nM compound; for % Ctrl. TrkA @100 nM: 100 nM compound
Protocol: (§1) Compounds were initially tested in a primary screen against TrkA (at 10 and 100 nM) and AurA (at 100 nM and 1 μM) using the KINOMEscan technology from DiscoverX Corporation, Fremont, Calif., USA (https://www.discoverx.com/services/drug-discovery-development-services/kinase-profiling/kinomescan).
Results were reported as % of control (% Ctrl.=(test compound signal−positive control signal)/(DMSO signal−positive control signal). KINOMEscan is an active site-directed competition binding assay that quantitatively measures the ability of a compound to compete with an immobilized, active-site directed ligand.

[3] = molecular target: T1, TrkA; assay: KdELECT Kd measurement (KINOMEscan), TrkA; assay type: binding; conditions: for Kd: duplicate 11-point dose-response curves
Protocol: (§2) Kd measurements were done via the KdELECT product service from DiscoverX Corporation (Freemont, Calif., USA) which also employs the KINOMEscan technology. Here, inhibitor binding constants (Kd values) are calculated from duplicate 11-point dose-response curves.

[4] = molecular target: TrkA; assay: KdELECT Kd measurement (KINOMEscan), TrkA; assay type: binding; conditions: for ΔpKd: TrkA pKd versus AurA pKd
Protocol: as §2

[5] = molecular target: full-length human TrkA receptor (Homo sapiens, UniProt P04629); assay: PathHunter cellular functional assay, antagonism of β-NGF; assay type: cell-based; conditions: antagonism at EC80 (0.03 μg/ml) of β-NGF; read-out: Cellular assay [RC50]
Text: The two compounds a1 and b7 were additionally tested in a functional assay using the PathHunter® technology (DiscoverX Corporation, Freemont, Calif., USA; https://www.discoverx.com/technologies-platforms/enzyme-fragment-complementation-technoloqy/cell-based-efc-assays/protein-protein-interactions/kinases-cell-based-(rtk-ctk)). In this assay, the full-length human TrkA receptor (i.e. including ligand-binding and kinase domains) is expressed as a C-terminal (intracellular) fusion with a small peptide epitope, called Prolink™ (PK). Furthermore, a SH2 domain containing protein (i.e. Shc1) is co-expressed with a larger Enzyme Acceptor (EA) fragment. Activation of the TrkA receptor by adding the agonist ligand (β-NGF), leads to the auto-phosphorylation of the kinase and subsequent binding of the Shc1-EA protein. That recruitment results in an active B-galactosidase enzyme that is detected by addition of a chemiluminescent substrate.
Compounds were tested for antagonism using EC80 concentration (i.e. 0.03 μg/ml) of β-NGF. Data was normalized to the maximal and minimal response observed in the presence of EC80 agonist ligand (3-NGF) and vehicle (DMSO, final concentration 1%), respectively.

[6] = molecular target: T2, AurA (Homo sapiens, UniProt O14965); assay: KINOMEscan primary screen against AurA; assay type: binding; conditions: % of control; for % Ctrl. AurA @100 nM: 100 nM compound; for % Ctrl. AurA @1 μM: 1 μM compound
T2 sequence (O14965 1-403): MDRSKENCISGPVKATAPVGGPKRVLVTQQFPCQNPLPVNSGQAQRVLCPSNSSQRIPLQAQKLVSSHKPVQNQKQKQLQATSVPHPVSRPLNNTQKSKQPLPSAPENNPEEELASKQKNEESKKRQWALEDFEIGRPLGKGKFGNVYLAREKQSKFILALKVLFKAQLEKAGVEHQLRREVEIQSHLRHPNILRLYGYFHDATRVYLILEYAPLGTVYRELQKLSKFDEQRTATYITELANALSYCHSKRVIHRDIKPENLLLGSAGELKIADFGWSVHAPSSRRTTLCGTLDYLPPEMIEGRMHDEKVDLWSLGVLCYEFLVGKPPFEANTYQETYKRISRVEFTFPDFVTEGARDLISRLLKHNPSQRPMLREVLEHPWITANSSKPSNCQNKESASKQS
Protocol: as §1

[7] = molecular target: T2, AurA; assay: KdELECT Kd measurement (KINOMEscan), AurA; assay type: binding; conditions: for Kd: duplicate 11-point dose-response curves
Protocol: as §2

T1 sequence (P04629 33-796): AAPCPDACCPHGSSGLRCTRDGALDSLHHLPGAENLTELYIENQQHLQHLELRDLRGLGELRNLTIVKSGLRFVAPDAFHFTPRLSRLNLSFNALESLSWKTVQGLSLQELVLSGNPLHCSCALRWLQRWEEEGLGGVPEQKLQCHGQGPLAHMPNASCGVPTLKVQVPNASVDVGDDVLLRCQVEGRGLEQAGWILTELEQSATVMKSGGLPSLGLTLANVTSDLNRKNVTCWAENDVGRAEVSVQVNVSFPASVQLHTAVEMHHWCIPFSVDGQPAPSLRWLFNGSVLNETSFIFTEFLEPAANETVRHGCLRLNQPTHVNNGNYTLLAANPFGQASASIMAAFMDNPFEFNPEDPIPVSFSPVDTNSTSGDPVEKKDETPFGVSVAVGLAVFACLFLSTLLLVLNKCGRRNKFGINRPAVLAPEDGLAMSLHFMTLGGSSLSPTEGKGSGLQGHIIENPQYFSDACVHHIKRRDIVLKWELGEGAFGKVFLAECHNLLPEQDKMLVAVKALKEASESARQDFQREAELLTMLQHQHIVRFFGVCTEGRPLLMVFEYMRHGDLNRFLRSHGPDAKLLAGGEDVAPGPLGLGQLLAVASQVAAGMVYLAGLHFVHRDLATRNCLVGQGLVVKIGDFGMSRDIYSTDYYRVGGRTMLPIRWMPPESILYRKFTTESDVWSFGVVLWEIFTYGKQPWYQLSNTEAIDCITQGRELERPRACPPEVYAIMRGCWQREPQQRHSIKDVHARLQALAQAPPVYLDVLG
full-length human TrkA receptor, sequence (P04629 33-796): as above
full-length human TrkA receptor, sequence (P01138 122-241 partner): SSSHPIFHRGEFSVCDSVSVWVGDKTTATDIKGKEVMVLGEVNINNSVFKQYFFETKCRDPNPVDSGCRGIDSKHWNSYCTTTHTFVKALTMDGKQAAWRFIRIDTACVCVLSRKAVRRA

Row | Structure (SMILES) | # Hits [1] | List of inhibited kinases [1] | % Ctrl. TrkA @10 nM [2] [% Ctrl.] | % Ctrl. TrkA @100 nM [2] [% Ctrl.] | TrkA [pKd] [3] | Kd [3] [nM] | ΔpKd [4] | IC50 [5] [nM] | % Ctrl. AurA @100 nM [6] [% Ctrl.] | % Ctrl. AurA @1 μM [6] [% Ctrl.] | AurA [pKd] [7] | Kd [7] [nM] | Selectivity Score [1] | ΔΔpKd (selectivity towards AurA compared to tozasertib) ([4]; compared to tozasertib)
1 | Cc1cc(Nc2cc(N3CCN(C)CC3)nc(Sc3ccc(NC(=O)C4CC4)cc3)n2)n[nH]1 [Tozasertib, N-[4-({4-[(5-methyl-1H-pyrazol-3-yl)amino]-6-(4-methylpiperazin-1-yl)pyrimidin-2-yl}sulfanyl)phenyl]cyclopropanecarboxamide, reference compound] | 10 | TrkA, ABL1, AurA, AurB, AXL,; also recorded: CK1d, FLT3, JAK2, PLK4, RET | 31 | 5.2 | – | – | – | – | – | – | – | – | – | –
2 | Cc1cc(Nc2cc(N3CCN(C)CC3)nc(SCc3ccc(F)cc3)n2)n[nH]1 [b7, 2-{[(4-fluorophenyl)methyl]sulfanyl}-N-(5-methyl-1H-pyrazol-3-yl)-6-(4-methylpiperazin-1-yl)pyrimidin-4-amine] | 18 | TrkA, TrkB, TrkC, ABL1, ALK,; also recorded: AurA, FLT3, FMS, JAK2, JAK3,; also recorded: KDR, KIT, NuaK2, PDGFRb, PLK4,; also recorded: RET, SRC, TYK2 | 9.3 | 0.5 | 9.0 | 1.1 | 1.4 | 23 | 15 | 0.85 | 7.6 | 28 | 0.196 | –
3 | Cc1ccc(CSc2nc(Nc3cc(C)[nH]n3)cc(N3CCN(C)CC3)n2)cc1 [b8, N-(5-methyl-1H-pyrazol-3-yl)-2-{[(4-methylphenyl)methyl]sulfanyl}-6-(4-methylpiperazin-1-yl)pyrimidin-4-amine] | 17 | TrkA, TrkB, TrkC, ABL1, AurA, and AXL, BTK, FGFR3, FLT3, JAK2, and JAK3, KDR, KIT, PLK4, RET, SRC, and TYK2 | 35 | 5.3 | 8.4 | 3.8 | 1.1 | – | 30 | 1.3 | 7.3 | 53 | 0.185 | –
4 | CN1CCN(c2cc(Nc3cc(C4CCCC4)[nH]n3)nc(Sc3ccccc3)n2)CC1 [a4, N-(5-cyclopentyl-1H-pyrazol-3-yl)-6-(4-methylpiperazin-1-yl)-2-(phenylsulfanyl)pyrimidin-4-amine] | 19 | TrkA, TrkB, TrkC, ABL1, AurA,; also recorded: AXL, FGFR2, FGFR3, FLT3, FMS,; also recorded: INSR, JAK2, JAK3, KIT, MAP2K2,; also recorded: MET, PDGFRb, RET, SRC | 15 | 0.95 | 8.8 | 1.5 | 1.8 | – | 49 | 4.5 | 7.0 | 93 | 0.207 | –
5 | Cc1cc(Nc2cc(N3CCN(C)CC3)nc(Sc3ccccc3)n2)n[nH]1 [Reference 2, N-(5-methyl-1H-pyrazol-3-yl)-6-(4-methylpiperazin-1-yl)-2-(phenylsulfanyl)-pyrimidin-4-amine, reference compound] | – | – | 58 | 10 | 7.5 | 30 | 0.1 | – | 15 | 0.95 | 7.4 | 41 | – | 1
